The source of these data is US5324648A, “Substituted isocoumarins as serine protease inhibitors and anti-inflammatory agents” (Georgia Tech Research Corporation, priority 1992, dated 1994).

The structures appear in SMILES notation. Like-named read-outs stand apart in the source and are kept apart here.

For one assay, the target named is human lung tryptase. As to the kind of experiment: Inactivation rate of human lung tryptase. It counts as biochemical. The note with it: Table IX; for percentage of inhibition: not time dependent, at 0.34-5.0 μM. As for the experimental part: (§1) Inactivation rates of serine proteases by substituted isocoumarins were measured by the incubation method. An aliquot of inhibitor (25 or 50 μl) in Me2 SO was added to a buffered enzyme solution (0.01-2.3 μM) to initiate the inactivation. Aliquots (50 μl) were withdrawn at various intervals and the residual enzymatic activity was measured. Me2 SO concentration in the reaction mixture was 8-12% (v/v). 0.1 Hepes, 0.01M CaCl2, pH 7.5 buffer was utilized for trypsin and coagulation enzymes. 0.1M Hepes, 0.5M NaCl, pH 7.5 was utilized for other serine proteases. The inhibitor concentrations are shown in all the tables. Peptide thioesters or peptide nitroanilides with appropriate sequence were used as substrates for various serine proteases. All peptide thioester hydrolysis rates were measured with assay mixtures containing 4,4'-dithiodipyridine (ε324 =19800M^-1 cm^-1; Grasetti & Murray, Arch. Biochem. Biophys. 119, pp 41-49 (1967)). Peptide 4-nitroanilide nitroanilide hydrolysis was measured at 410 nm (ε410 =8800M^-1 cm^-1; Erlanger et al., Arch. Biochem. Biophys. 95, pp 271-278 (1961)). First order inactivation rate constant (kobs) were obtained from plots of ln (vt /vo) vs time, and the correlation coefficients were greater than 0.98.
^a Inactivation rates were measured at 0.1M Hepes, 0.5M NaCl, pH 7.5
buffer, 8% Me2 SO and 25° C.
(§2) ^a Inhibition rates were measured in 0.1M Hepes, 0.01M CaCl2, pH
(§3) 7.5 buffer for human plasmin; 25 mM Phosphate, 0.5M NaCl, 1 mM EDTA, pH
(§4) 7.5 buffer for rat skin tryptase and 0.1M Hepes, 0.5M NaCl, pH 7.5 for
(§5) human lung tryptase, human skin tryptase and rt-PA. All enzymes were
(§6) assayed with ZArg-SBzl (0.07 mM) in the presence of 4,4dithiodipyridine
(§7) (0.33 mM). Reaction mixtures contained 8% Me2 SO and assays were […]

Another assay addresses T1, bovine thrombin (Bos taurus, UniProt P00735).
T1 construct: bovine thrombin
As to the kind of experiment: Inactivation rate of bovine thrombin. To be noted: Table VIII; pH 7.5, 25° C; [I] 1.2-54 μM; read-out: kobs/[I]. It counts as biochemical. As for the experimental part: as §1
(§8) ^a Conditions were as 0.1M Hepes, 0.01M CaCl2, pH 7.5 and 8-12%
(§9) Me2 SO and 25° C. Rate constants were measured by incubation
(§10) method unless otherwise noted. An aliquot of inhibitor was added to an
(§11) enzyme solution and aliquots removed with time and assayed for remaining
(§12) enzymatic activity. Firstorder rate constants, kobs were obtained
(§13) from the plots of ln(vt /vo) versus time.
as §2
(§14) 7.5 buffer, 8% Me2 SO and at 25° C.

A further assay concerns the target T2, rat skin tryptase (Rattus norvegicus, UniProt P27435).
T2 construct: from tissue; host or cells: rat skin
Kind of assay: Inactivation rate of rat skin tryptase. It counts as biochemical. The note with it: pH 7.5, Table IX; pH 7.5, 25° C; [I] 0.42-0.51 μM; read-out: kobs/[I]. The protocol:
as §1
^b Inactivation rates were measured at 25 mM phosphate, 0.5M NaCl, 1
mM EDTA, pH 7.5 buffer, 9% Me2 SO and 25° C.
as §2, §3, §4, §5, §6, §7

In assay [1] the target is recombinant human tissue plasminogen activator (Homo sapiens, UniProt P00750). Kind of assay: Inactivation rate of recombinant human tissue plasminogen activator. The note with it: for kinact/KI: pH 7.5, Table IX, pH 7.5, 25° C, [I] 3.5-5.0 μM, read-out: kobs/[I]. It counts as biochemical. As for the experimental part:
as §1
^a Inactivation constants were measured at 0.1M Hepes, 0.5M NaCl (or
as §2, §3, §4, §5, §6, §7

For another assay, the target named is T3, human thrombin (Homo sapiens, UniProt P00734).
T3 construct: human thrombin
Kind of assay: Inactivation rate of human thrombin. To be noted: Table VIII; pH 7.5, 25° C; [I] 1.2-54 μM; read-out: kobs/[I]. It counts as biochemical. As for the experimental part:
as §1, §2, §14

In another assay the target is T4, bovine trypsin (Bos taurus, UniProt P00760).
T4 sequence (P00760 24-246): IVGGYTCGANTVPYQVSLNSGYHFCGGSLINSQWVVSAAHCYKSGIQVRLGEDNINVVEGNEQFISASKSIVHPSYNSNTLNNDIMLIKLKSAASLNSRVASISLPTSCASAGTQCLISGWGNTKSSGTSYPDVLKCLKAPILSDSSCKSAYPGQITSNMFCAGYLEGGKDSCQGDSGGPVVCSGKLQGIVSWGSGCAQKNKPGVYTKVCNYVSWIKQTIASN
As to the kind of experiment: Inactivation rate of bovine trypsin. It counts as biochemical. The note with it: Table VIII; pH 7.5, 25° C; [I] 1.1-4.6 μM; read-out: kobs/[I]. The protocol: as §1, §8, §9, §10, §11, §12, §13, §2, §14

The target in another assay is chymotrypsin (Bos taurus, UniProt P00766). Kind of assay: Inactivation of chymotrypsin. It counts as biochemical, bovine. The note with it: read-out: kobs/[I].
Assay [2] concerns the target T5, human leukocyte elastase (HLE) (Homo sapiens, UniProt P08246).
T5 construct: from tissue; host or cells: human leukocytes (from the name)
T5 sequence (P08246 30-267): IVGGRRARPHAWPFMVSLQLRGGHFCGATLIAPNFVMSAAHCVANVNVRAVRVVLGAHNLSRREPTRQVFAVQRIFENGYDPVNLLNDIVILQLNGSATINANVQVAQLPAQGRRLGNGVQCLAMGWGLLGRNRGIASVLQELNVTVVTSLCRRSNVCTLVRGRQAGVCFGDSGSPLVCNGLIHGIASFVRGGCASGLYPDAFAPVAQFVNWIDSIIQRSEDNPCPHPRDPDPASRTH
Kind of assay: Inactivation of human leukocyte elastase (HLE). The note with it: read-out: kobs/[I]. It counts as biochemical.

For a further assay, the target named is T6, cathepsin G (Homo sapiens, UniProt P08311).
T6 construct: from tissue; host or cells: human leukocytes
T6 sequence (P08311 21-255): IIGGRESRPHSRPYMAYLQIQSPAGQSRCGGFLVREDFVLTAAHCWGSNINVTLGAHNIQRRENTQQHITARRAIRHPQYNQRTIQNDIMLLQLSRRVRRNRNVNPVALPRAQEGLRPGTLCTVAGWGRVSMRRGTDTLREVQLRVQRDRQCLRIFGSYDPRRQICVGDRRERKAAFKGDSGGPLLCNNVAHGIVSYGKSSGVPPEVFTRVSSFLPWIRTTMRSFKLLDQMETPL
As to the kind of experiment: Inactivation of cathepsin G. It counts as biochemical. Set-up: percentage of inhibition: concentration or dose not given beside the values. The note with it: for kinact/KI: read-out: kobs/[I].

Assay [3] has as its target T7, porcine pancreatic elastase (PPE) (Sus scrofa, UniProt P00772).
T7 construct: from tissue; host or cells: porcine pancreas (from the name)
Kind of assay: Inactivation of porcine pancreatic elastase (PPE). It counts as biochemical. The note with it: for kinact/KI: read-out: kobs/[I].
Method: Inactivation rates of serine proteases by substituted isocoumarins were measured by the incubation method. An aliquot of inhibitor (25 or 50 μl) in Me2 SO was added to a buffered enzyme solution (0.01-2.3 μM) to initiate the inactivation. Aliquots (50 μl) were withdrawn at various intervals and the residual enzymatic activity was measured. Me2 SO concentration in the reaction mixture was 8-12% (v/v). 0.1 Hepes, 0.01M CaCl2, pH 7.5 buffer was utilized for trypsin and coagulation enzymes. 0.1M Hepes, 0.5M NaCl, pH 7.5 was utilized for other serine proteases. […] Peptide thioesters or peptide nitroanilides with appropriate sequence were used as substrates for various serine proteases. All peptide thioester hydrolysis rates were measured with assay mixtures containing 4,4'-dithiodipyridine (ε324 =19800M^-1 cm^-1 ; Grasetti & Murray, Arch. Biochem. Biophys. 119, pp 41-49 (1967)). Peptide 4-nitroanilide nitroanilide hydrolysis was measured at 410 nm (ε410 =8800M^-1 cm^-1 ; Erlanger et al., Arch. Biochem. Biophys. 95, pp 271-278 (1961)). First order inactivation rate constant (kobs) were obtained from plots of ln (vt /vo) vs time, and the correlation coefficients were greater than 0.98.
^a Inactivation rates were measured at 0.1M Hepes, 0.5 NaCl, pH 7.5,
8-12% Me2 SO and 25° C. by incubation method.
^a Inhibition rates were measured in 0.1M Hepes, 0.05M NaCl, pH 7.5
buffer, 8-9% Me2 SO and at 25° C.
^a Inhibition constants were in 0.1M Hepes, 0.5M NaCl, pH 7.5 buffer,
8-9% Me2 SO and at 25° C.
^a Inhibition rates were measured in 0.1M Hepes, 0.5M NaCl, 2.5%
Me2 SO, pH 7,5 and at 25° C.
^a Inhibition was measured in 0.1M Hepes, 0.5M NaCl, pH 7.5 buffer,
5-10% Me2 SO and at 25° C. Suc--Val--Pro--Phe--NA (0.48 mM)
was used as the substrate for chymotrypsin and cat G.
^a Inhibition rates were measured in 0.1M Hepes, 0.5M NaCl, pH 7.5

Setting [4] is: pH 7.5, Table XVI, second order, equimolar inhibitor and enzyme.
Setting [5] is: Table XVI, pH 7.5, 25° C, [I] 0.04-2.0 mM.

recombinant human tissue plasminogen activator, sequence (P00750 36-562): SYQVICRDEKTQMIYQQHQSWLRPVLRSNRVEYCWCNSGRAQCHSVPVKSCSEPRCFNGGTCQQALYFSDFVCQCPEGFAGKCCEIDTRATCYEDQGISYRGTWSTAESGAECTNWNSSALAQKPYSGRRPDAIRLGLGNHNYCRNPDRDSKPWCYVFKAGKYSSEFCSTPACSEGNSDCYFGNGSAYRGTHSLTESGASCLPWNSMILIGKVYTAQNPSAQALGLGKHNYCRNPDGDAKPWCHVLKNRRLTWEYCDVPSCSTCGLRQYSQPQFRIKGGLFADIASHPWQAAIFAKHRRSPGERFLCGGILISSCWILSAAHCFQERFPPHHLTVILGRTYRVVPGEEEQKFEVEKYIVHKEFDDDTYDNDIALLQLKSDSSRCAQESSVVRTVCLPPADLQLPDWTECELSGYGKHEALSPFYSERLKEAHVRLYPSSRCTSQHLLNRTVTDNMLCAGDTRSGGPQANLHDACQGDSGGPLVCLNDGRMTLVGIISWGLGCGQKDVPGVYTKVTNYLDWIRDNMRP
T2 sequence (P27435 29-273): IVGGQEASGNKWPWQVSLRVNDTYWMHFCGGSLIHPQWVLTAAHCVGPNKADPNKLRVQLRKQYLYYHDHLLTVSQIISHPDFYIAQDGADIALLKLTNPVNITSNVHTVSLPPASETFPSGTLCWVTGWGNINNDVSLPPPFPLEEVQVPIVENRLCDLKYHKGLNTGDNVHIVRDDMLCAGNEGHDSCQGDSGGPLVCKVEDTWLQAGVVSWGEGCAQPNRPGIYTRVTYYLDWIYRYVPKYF
T7 sequence (P00772 27-266): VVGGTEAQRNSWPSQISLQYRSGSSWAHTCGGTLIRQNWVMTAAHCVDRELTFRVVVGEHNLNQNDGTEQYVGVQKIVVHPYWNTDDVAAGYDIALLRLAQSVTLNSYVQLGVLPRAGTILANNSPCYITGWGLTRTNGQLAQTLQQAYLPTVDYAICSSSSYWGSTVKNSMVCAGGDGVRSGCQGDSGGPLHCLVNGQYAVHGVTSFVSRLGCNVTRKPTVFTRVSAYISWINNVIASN

In the case of `CC(C)(C)OC(=O)N[C@@H](Cc1ccccc1)C(=O)Nc1ccc2c(Cl)c(OCCCSC(=N)N)oc(=O)c2c1` [Boc-L-Phe--NH-CiTPrOIC, 7-(N-t-butyloxycarbonyl-L-phenylalanylamino)-4-chloro-3-(3-isothiureidopropoxy)isocoumarin], at human lung tryptase (pH 7.5, 25° C, [I] 0.42-0.47 μM), the “kobs/[I]” value was 170,000 M^-1 s^-1. For the same compound, the kinact/KI at bovine thrombin was 330 M⁻¹ s⁻¹; on rat skin tryptase it was 150000 M⁻¹ s⁻¹; in assay [1] it was 6000 M⁻¹ s⁻¹; on human thrombin, 520 M⁻¹ s⁻¹.
Consider `N=C(N)SCCOc1oc(=O)c2cc(NC(=S)Nc3ccccc3)ccc2c1Cl` [PhNHCSNH-CiTEtOIC, 7-phenylthiocarbamoylamino-4-chloro-3-(2-isothiureidoethoxy)isocoumarin], for which, at human thrombin, the kinact/KI came out at 21400 M⁻¹ s⁻¹.
As to `N=C(N)SCCCOc1oc(=O)c2cc(NC(=O)[C@H](N)Cc3ccccc3)ccc2c1Cl` [D-Phe--NH-CiTPrOIC, 7-(D-phenylalanylamino)-4-chloro-3-(3-isothiureidopropoxy)isocoumarin], the kinact/KI worked out at 180 M⁻¹ s⁻¹ at bovine thrombin, 68300 M⁻¹ s⁻¹ on bovine trypsin and 220 M⁻¹ s⁻¹ on human thrombin.
Turning to `CC(C)NC(=O)Nc1ccc2c(Cl)c(OCCSC(=N)N)oc(=O)c2c1` [(CH3)2 CHNHCONH-CiTEtOIC, 7-(isopropylcarbamoylamino)-4-chloro-3-(2-isothiureidoethoxy)isocoumarin], the values for the kinact/KI at bovine thrombin and at human thrombin were 4100 M⁻¹ s⁻¹ and 5000 M⁻¹ s⁻¹, respectively.
In the same order, the values of `N=C(N)SCCOc1oc(=O)c2cc(NC(=O)Nc3cccc4ccccc34)ccc2c1Cl` [Naphthyl-NHCONH-CiTEtOIC, 7-(1-naphthylcarbamoylamino)-4-chloro-3-(2-isothiureidoethoxy)isocoumarin] are 17500 M⁻¹ s⁻¹ and 5800 M⁻¹ s⁻¹.
The like results for `C[C@H](NC(=O)OC(C)(C)C)C(=O)N[C@@H](C)C(=O)Nc1ccc2c(Cl)c(OCCSC(=N)N)oc(=O)c2c1` [Boc--Ala-- Ala--NH-CiTEtOIC, 7-(N-t-butyloxycarbonyl-L-alanyl-L-alanylamino)-4-chloro-3-(2-isothiureidoethoxy)isocoumarin] were, in that order, 1530 M⁻¹ s⁻¹ and 970 M⁻¹ s⁻¹.
Regarding `CC(C)(C)OC(=O)N[C@H](Cc1ccccc1)C(=O)Nc1ccc2c(Cl)c(OCCSC(=N)N)oc(=O)c2c1` [Boc-D-Phe--NH-CiTEtOIC, 7-(N-t-butyloxycarbonyl-D-phenylalanylamino)-4-chloro-3-(2-isothiureidoethoxy)isocoumarin], the percentage of inhibition was found to be 44% with human lung tryptase; 65% in [1] (Table IX, not time dependent, at 0.34-5.0 μM); 12% in assay [3] (Table X, after 20 min incubation). The kinact/KI came to 1040 M⁻¹ s⁻¹ at bovine thrombin; 135000 M⁻¹ s⁻¹ on rat skin tryptase; 220 M⁻¹ s⁻¹ at chymotrypsin (Table X, pH 7.5, 25° C, [I] 0.9-43 μM); 3100 M⁻¹ s⁻¹ in [2] (Table X, pH 7.5, 25° C, [I] 2.1-42 μM); 35 M⁻¹ s⁻¹ at cathepsin G (Table X, pH 7.5, 25° C, [I] 33-46 μM); 1090 M⁻¹ s⁻¹ at human thrombin.
Take `N=C(N)SCCOc1oc(=O)c2cc(NC(=S)Nc3cccc(C(=O)O)c3)ccc2c1Cl` [m-Carboxy-PhNHCSNH-CiTEtOIC, 7-(m-carboxyphenylthiocarbamoyl)amino-4-chloro-3-(2-isothiureidoethoxy)isocoumarin]: at human thrombin, the kinact/KI amounted to 17500 M⁻¹ s⁻¹.
Take `CC(C)(C)OC(=O)N[C@H](Cc1ccccc1)C(=O)Nc1ccc2c(Cl)c(OCCCSC(=N)N)oc(=O)c2c1` [Boc-D-Phe--NH-CiTPrOIC, 7-(N-t-butyloxycarbonyl-D-phenylalanylamino)-4-chloro-3-(3-isothiureidopropoxy)isocoumarin]: the values for the kinact/KI on bovine thrombin, on bovine trypsin and at human thrombin were 190 M⁻¹ s⁻¹, 105000 M⁻¹ s⁻¹ and 230 M⁻¹ s⁻¹, respectively.
For the compound `N=C(N)SCCCOc1oc(=O)c2cc(NC(=O)[C@@H](N)Cc3ccccc3)ccc2c1Cl` [L-Phe--NH-CiTPrOIC, 7-(L-phenylalanylamino)-4-chloro-3-(3-isothiureidopropoxy)isocoumarin], the percentage of inhibition in the assay on human lung tryptase is listed as 54%. Besides, the kinact/KI at bovine thrombin came out at 400 M⁻¹ s⁻¹; at rat skin tryptase it was 96000 M⁻¹ s⁻¹; in [1], 11000 M⁻¹ s⁻¹; on human thrombin, 470 M⁻¹ s⁻¹.
Consider `O=c1oc(OCCBr)c(Cl)c2ccc(NC(=S)Nc3ccccc3)cc12` [7-phenylthiocarbamoylamino-4-chloro-3-(2-bromoethoxy)isocoumarin], for which the kinact/KI was 39000 M⁻¹ s⁻¹ at chymotrypsin (setting [4]); > 480000 M⁻¹ s⁻¹ in assay [2] (setting [4]); 200 M⁻¹ s⁻¹ on cathepsin G (Table XVI, pH 7.5, 25° C, [I] 35-710 μM); 1250 M⁻¹ s⁻¹ in [3] (setting [5]).
Regarding `C[C@H](NC(=O)Nc1ccc2c(Cl)c(OCCBr)oc(=O)c2c1)c1ccccc1` [7-(S-α-methylbenzyl)carbamoylamino-4-chloro-3-(2-bromoethoxy)isocoumarin], the kinact/KI at chymotrypsin (Table XVI, pH 7.5, 25° C, [I] 1.7-58 μM) was 440 M⁻¹ s⁻¹; in assay [2] (setting [4]), > 570000 M⁻¹ s⁻¹; in assay [3] (setting [5]) it was 2660 M⁻¹ s⁻¹. Also, the percentage of inhibition on cathepsin G (Table XVI, after 5 min incubation) is reported as 21%.
On to `CCCOc1oc(=O)c2cc(NC(=O)NCC)ccc2c1Cl` [7-ethylcarbamoylamino-4-chloro-3-propyloxyisocoumarin], for which the kinact/KI was 120 M⁻¹ s⁻¹ at chymotrypsin (pH 7.5, Table XII, 2.5% Me2SO, 25° C, [I] 3.4-70 μM); > 276000 M⁻¹ s⁻¹ in [2] (pH 7.5, Table XII, 2.5% Me2SO, 25° C, [I] 0.7-1.9 μM); 166 M⁻¹ s⁻¹ on cathepsin G (pH 7.5, Table XII, 2.5% Me2SO, 25° C, [I] 8.7-87 μM); 80 M⁻¹ s⁻¹ in [3] (pH 7.5, Table XII, 2.5% Me2SO, 25° C, [I] 34-56 μM).
